Columns and labels:
Experiment in all cases: relative viability (nuclei count vs DMSO), 5 days (fraction); higher = more cells survive
Lapatinib + Foretinib = compound: CS(=O)(=O)CCNCc1ccc(-c2ccc3ncnc(Nc4ccc(OCc5cccc(F)c5)c(Cl)c4)c3c2)o1 [Lapatinib] + COc1cc2c(Oc3ccc(NC(=O)C4(C(=O)Nc5ccc(F)cc5)CC4)cc3F)ccnc2cc1OCCCN1CCOCC1 [Foretinib] (partner 0.25 µM)
In short: (§1)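 Lung cancer cell lines were seeded in 1536-well plates and dosed by pin tool the next day, with either a single drug or a fixed anchor-drug dose combined with five library-drug doses (not always all listed) spaced in √10 steps. Five days later, one step fixed the cells and stained their nuclei (final 0.05% Triton X-100, 1% formaldehyde, 1 ug/ml Hoechst), and nuclei were counted on 4× images. Relative viability is the nuclei count in treated wells divided by the count in vehicle wells, and each value is the median of duplicate plates.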

Lapatinib + Crizotinib = compound: CS(=O)(=O)CCNCc1ccc(-c2ccc3ncnc(Nc4ccc(OCc5cccc(F)c5)c(Cl)c4)c3c2)o1 [Lapatinib] + C[C@@H](Oc1cc(-c2cnn(C3CCNCC3)c2)cnc1N)c1c(Cl)ccc(F)c1Cl [Crizotinib] (partner 1 µM)
In short: as §1

Wnt-C59 + Lapatinib = compound: CC1=NC=CC(=C1)C2=CC=C(C=C2)CC(=O)NC3=CC=C(C=C3)C4=CN=CC=C4 [Wnt-C59] + CS(=O)(=O)CCNCc1ccc(-c2ccc3ncnc(Nc4ccc(OCc5cccc(F)c5)c(Cl)c4)c3c2)o1 [Lapatinib] (partner 2 µM)
In short: as §1

Lapatinib + Decitabine = compound: CS(=O)(=O)CCNCc1ccc(-c2ccc3ncnc(Nc4ccc(OCc5cccc(F)c5)c(Cl)c4)c3c2)o1 [Lapatinib] + Nc1ncn([C@H]2C[C@H](O)[C@@H](CO)O2)c(=O)n1 [Decitabine] (partner 2 µM)
In short: as §1

Cell Line	relative viability (Lapatinib + Foretinib; first compound 0.02 µM)	relative viability (Lapatinib + Foretinib; first compound 0.06325 µM)	relative viability (Lapatinib + Foretinib; first compound 0.2 µM)	relative viability (Lapatinib + Foretinib; first compound 0.6325 µM)	relative viability (Lapatinib + Foretinib; first compound 2 µM)	relative viability (Lapatinib + Crizotinib; first compound 0.02 µM)	relative viability (Lapatinib + Crizotinib; first compound 0.06325 µM)	relative viability (Lapatinib + Crizotinib; first compound 0.2 µM)	relative viability (Lapatinib + Crizotinib; first compound 0.6325 µM)	relative viability (Lapatinib + Crizotinib; first compound 2 µM)	relative viability (Wnt-C59 + Lapatinib; first compound 0.001 µM)	relative viability (Wnt-C59 + Lapatinib; first compound 0.01 µM)	relative viability (Wnt-C59 + Lapatinib; first compound 0.03162 µM)	relative viability (Wnt-C59 + Lapatinib; first compound 0.1 µM)	relative viability (Lapatinib + Decitabine; first compound 0.02 µM)	relative viability (Lapatinib + Decitabine; first compound 0.06325 µM)	relative viability (Lapatinib + Decitabine; first compound 0.2 µM)	relative viability (Lapatinib + Decitabine; first compound 0.6325 µM)	relative viability (Lapatinib + Decitabine; first compound 2 µM)
NCI-H2170	1.05	0.961	0.784	0.655	0.25	1.13	0.904	0.694	0.475	0.223	0.265	0.262	0.275	0.271	0.503	0.459	0.477	0.429	0.182
LXF-289	0.996	0.953	0.967	0.948	0.851	0.819	0.85	0.805	0.779	0.743	0.925	0.903	0.891	0.849	0.358	0.377	0.354	0.385	0.408
LCLC-97TM1			0.843	0.973	1.02			0.593	0.472	0.357	1.64	0.603	1.07	0.687		0.232	0.222	0.268	0.268
NCI-H2347		0.694	0.854	0.994	1.02	0.7	0.654	0.722	0.649	0.671	0.961	0.861	0.976	0.854	0.573	0.514	0.642	0.605	0.599
PC-3 [JPC-3]	1.04	0.989	1.03	1.09	0.471		0.965	1.09	0.998	0.656	0.465	0.459	0.447	0.496		0.786		0.954	0.598
H3255	0.405	0.789	0.826	0.862	0.686	0.752	0.687	0.888	0.702	0.311	0.278	0.283	0.259	0.242		0.543	0.584	0.422	0.207
HOP-62	1.14	1.16	1.03	1.09	1.13		0.892	0.991	0.934	0.948	0.907	0.996	1.04	1.03		0.224	0.21	0.203	0.219
LK-2			1.39	1.42	1.07			0.253	0.217	0.245	0.853	0.913	0.799	0.864	0.196		0.331	0.363	0.411
PC-14	0.864	0.913	1.03	0.873	0.78	0.815	0.9	0.946	0.898	0.826	0.311	0.324	0.328	0.316	0.271	0.277	0.246	0.223	0.193
EMC-BAC-2	0.953	0.844	0.969	0.86	0.857	0.729	0.635	0.788	0.661	0.74	0.828	0.755	0.849	0.794		0.864		0.945	0.956
NCI-H358	0.613	0.33	0.422	0.317	0.17	0.577		0.523	0.363	0.26	0.44	0.524	0.474	0.456	0.205	0.181	0.206	0.162	0.152
NCI-H2087		0.942	1.17	0.994	0.962	0.876	0.88	1.1	0.692	0.766	1.01	1.04	1.08	0.908	0.26	0.164	0.251	0.228	0.234
NCI-H1355		0.795	0.94	0.93	0.657		0.854	1.02	1.02	0.606	1.04	0.922	1.05	0.842	0.352	0.33	0.333	0.307	0.353
SK-MES-1	0.826	0.499	0.969	0.908	0.516	0.95	0.974	1.08	0.806	0.731	0.543	0.5	0.467	0.448	0.429	0.364	0.37	0.306	0.311
COR-L23	0.949	0.872	0.918	0.971	0.891	0.71	0.676	0.697	0.602	0.581	1.04	0.851	1.05	0.797	0.516	0.421	0.456	0.417	0.422
HCC-15		0.812	1.02	0.949	0.971		0.786	0.808	0.835	0.704	0.859	0.91	0.774	0.823		0.537	0.677	0.64	0.568
NCI-H2023			0.685	0.437	0.357	0.539	0.419	0.491	0.633	0.281	0.715	0.93	1.17	0.666	0.22	0.229	0.224	0.235	0.223
